Where a name gives a salt, the structure may show the parent alone.
Target: T1, HCV NS3 protease (full length NS34a) (Hepatitis C virus genotype 1b, UniProt P26663)
T1 construct: The protease activity of the full length NS34a was measured using a FRET-based assay; made in house
Assay: HCV NS3 protease assay (FRET, full length NS34a)
Assay type: biochemical
Settings: IC50 values of 10-150 μM against the protease activity of the full length NS34a, or at least 40% inhibition of protease activity at a concentration of 100 μM
Description: The HCV NS3 protease functions have been extensively studied and are considered as potential targets for antiviral therapy: see for example the many references listed in the introductory section of this application. Therefore, the activity of the compounds of the invention as anti-HCV agents was assessed using a full length HCV NS3 protease.
The protease activity of the full length NS34a was measured using a FRET-based assay utilizing a peptide substrate derived from the NS4AB cleavage site (Anaspec) and labelled at one end with a quencher (QXL520) and at the other with a fluorophore (5-FAMsp). NS34a (produced in-house by literature methods) was incubated with test compounds and peptide substrate in 50 mM Tris pH8, 20 mM DTT, 1% CHAPS, 10% glycerol and 5% DMSO. The reaction was followed by monitoring the change in fluorescence on a Molecular Devices Gemini plate reader for 30 minutes at room temperature. Initial rates were calculated from the progress curves using SoftMax Pro (Molecular Devices). IC50 values were then calculated from replicate curves using Prism GraphPad software.

T1 sequence (P26663 1658-1711): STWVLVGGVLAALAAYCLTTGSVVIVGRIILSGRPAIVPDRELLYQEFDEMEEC
T1 sequence (P26663 1027-1657): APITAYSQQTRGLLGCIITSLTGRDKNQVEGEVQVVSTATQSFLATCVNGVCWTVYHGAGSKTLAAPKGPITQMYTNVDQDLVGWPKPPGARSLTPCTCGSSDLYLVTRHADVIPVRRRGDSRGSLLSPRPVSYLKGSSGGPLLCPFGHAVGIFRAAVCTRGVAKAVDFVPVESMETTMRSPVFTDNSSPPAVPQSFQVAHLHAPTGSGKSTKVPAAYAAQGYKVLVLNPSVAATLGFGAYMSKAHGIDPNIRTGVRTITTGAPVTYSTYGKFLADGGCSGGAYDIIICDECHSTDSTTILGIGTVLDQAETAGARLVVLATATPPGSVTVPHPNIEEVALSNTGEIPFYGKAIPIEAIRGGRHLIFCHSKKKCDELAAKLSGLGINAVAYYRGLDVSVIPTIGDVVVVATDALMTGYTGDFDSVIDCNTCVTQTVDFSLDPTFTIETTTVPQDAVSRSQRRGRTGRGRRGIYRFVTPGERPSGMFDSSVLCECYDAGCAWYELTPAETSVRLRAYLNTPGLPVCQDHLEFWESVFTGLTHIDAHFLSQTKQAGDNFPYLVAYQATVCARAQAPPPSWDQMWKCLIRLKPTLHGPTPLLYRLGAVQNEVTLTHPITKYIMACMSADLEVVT

Structure (SMILES) | IC50 [µM]
CC[C@@H](N[C@H](C)CC(N)=O)c1ccc(Cl)c(Oc2ccc(C#N)c(F)c2)c1F [Example 214] | 10 to 150
CC[C@@H](N[C@H](C)CC(N)=O)c1ccc(Cl)c(Oc2cccc(CNS(C)(=O)=O)c2)c1F [Example 217] | 10 to 150
CC[C@@H](N)c1ccc(Cl)c(Oc2ccc(CO)nc2)c1F [Example 231] | 10 to 150
CC[C@@H](N[C@H](C)CC(N)=O)c1ccc(Cl)c(Oc2ccc(C#N)nc2)c1F [Example 247] | 10 to 150
CC[C@@H](N[C@H](C)CC(N)=O)c1ccc(Cl)c(Oc2ccc(C(N)=O)nc2)c1F [Example 248, 5-{3-[(R)-1-((R)-2-Carbamoyl-1-methyl-ethylamino)-propyl]-6-chloro-2-fluoro-phenoxy}-pyridine-2-carboxylic acid amide.hydrochloride] | 10 to 150
CC[C@@H](N[C@H](C)CC(N)=O)c1ccc(Cl)c(Oc2ccc(N)c(OC)c2)c1F [Example 254] | 10 to 150
C[C@H](CC(N)=O)N[C@H](CC1CCOCC1)c1ccc(Cl)c(Oc2ccccc2)c1F [Example 257] | 10 to 150
C[C@H](CC(N)=O)N[C@@H](CC1CCOCC1)c1ccc(Cl)c(Oc2ccccc2)c1F [Example 258] | 10 to 150
CC[C@@H](N[C@H](C)CC(N)=O)c1ccc(Cl)c(Oc2ccc(N)c(C(F)(F)F)c2)c1F [Example 259] | 10 to 150
CC[C@@H](N[C@H](C)CC(=O)NC[C@@H](C)O)c1ccc(Cl)c(Oc2ccccc2)c1F [Example 268] | 10 to 150
CC[C@@H](N[C@H](C)CC(=O)NC(C)(C)CO)c1ccc(Cl)c(Oc2ccccc2)c1F [Example 269] | 10 to 150
N[C@H](CC1CCOCC1)c1ccc(Cl)c(Oc2ccccc2)c1F [Example 276A, (R)-1-(4-Chloro-2-fluoro-3-phenoxy-phenyl)-2-(tetrahydro-pyran-4-yl)-ethylamine. hydrochloride] | 10 to 150
N[C@@H](CC1CCOCC1)c1ccc(Cl)c(Oc2ccccc2)c1F [Example 276B, (S)-1-(4-Chloro-2-fluoro-3-phenoxy-phenyl)-2-(tetrahydro-pyran-4-yl)-ethylamine.hydrochloride] | 10 to 150
CCC(NCc1ccc[nH]1)c1ccc(F)c(Oc2ccccc2)c1F (stereo not drawn) [Example 291] | 10 to 150
CCC(NCc1ncc[nH]1)c1ccc(F)c(Oc2ccccc2)c1F (stereo not drawn) [Example 292] | 10 to 150
NC(CCO)c1ccc(F)c(Oc2ccccc2)c1F (stereo not drawn) [Example 294, 3-Amino-3-(2,4-difluoro-3-phenoxy-phenyl)-propan-1-ol.hydrochloride] | 10 to 150
C[C@@H](CC(N)=O)N[C@@H](c1ccc(Cl)c(Oc2ccccc2)c1F)C1CCOCC1 [Example 299] | 10 to 150
CC[C@@H](N[C@H](C)CC(=O)NC(C)C)c1ccc(Cl)c(Oc2ccccc2)c1F [Example 304] | 10 to 150
CC[C@@H](N[C@H](C)CC(=O)NOC)c1ccc(Cl)c(Oc2ccccc2)c1F [Example 307] | 10 to 150
CC[C@@H](N[C@H](C)CC(=O)NCC(=O)OC)c1ccc(Cl)c(Oc2ccccc2)c1F [Example 308] | 10 to 150
CC[C@@H](N[C@@H](C)CC(=O)N[C@H]1C[C@@H](N)C1)c1ccc(Cl)c(Oc2ccccc2)c1F [Example 320] | 10 to 150
C[C@H](CC(N)=O)NCc1ccc(F)c(Oc2ccccc2)c1F [Example 327] | 10 to 150

Continued, values first:

IC50 [µM] | Structure (SMILES)
10 to 150 | CC[C@@H](N[C@@H](C)C(=O)N(C)C)c1ccc(Cl)c(Oc2ccccc2)c1F [Example 332]
10 to 150 | CC[C@@H](N[C@@H](C)CC(N)=O)c1ccc(Cl)c(Oc2ccc(F)cc2N)c1F [Example 334]
10 to 150 | C[C@H](CC(N)=O)N[C@H](C)c1ccc(Cl)c(Oc2ccccc2)c1F [Example 335]
10 to 150 | C[C@@H](N)c1ccc(Cl)c(Oc2ccccc2)c1F [Example 341]
10 to 150 | C[C@H](CC(N)=O)N[C@H](CCO)c1ccc(Cl)c(Oc2ccccc2)c1F [Example 353]
10 to 150 | NC(=O)C[C@@H](N)c1ccc(Cl)c(Oc2ccccc2)c1F [Example 354]
10 to 150 | CC[C@@H](N)c1ccc(Cl)c(Oc2ccc(NC(C)=O)nc2)c1F [Example 355]

Same assay, conditions: protease activity of full length NS34a, FRET peptide substrate; read-out: Activity IC50

Structure (SMILES) | IC50 [µM]
CC[C@@H](N[C@H](C)CC(N)=O)c1ccc(Cl)c(Oc2ccc(C#N)c(OC)c2)c1F [Example 209] | 4.9
CC[C@@H](N)c1ccc(Cl)c(Oc2cc[nH]c(=O)c2)c1F [Example 218, 4-[3-((R)-1-Amino-propyl)-6-chloro-2-fluoro-phenoxy]-1H-pyridin-2-one. hydrochloride] | 8.2
CC[C@@H](N[C@H](C)CC(N)=O)c1ccc(Cl)c(Oc2ccc(-c3cnco3)cc2)c1F [Example 220] | 4.6
CC[C@@H](N)c1ccc(Cl)c(Oc2ccc(F)c(C(N)=O)c2)c1F [Example 227, 5-[3-((R)-1-Amino-propyl)-6-chloro-2-fluoro-phenoxy]-2-fluoro-benzamide (R isomer).hydrochloride] | 2.2
CC[C@@H](N)c1ccc(Cl)c(Oc2ccc(-c3cnco3)c(C)c2)c1F [Example 228] | 1.6
C#Cc1ccc(Oc2c(Cl)ccc([C@@H](CC)N[C@H](C)CC(N)=O)c2F)cc1 [Example 229] | 1.7
CC[C@@H](N[C@H](C)CC(N)=O)c1ccc(Cl)c(Oc2ccc3c(c2)OCC3)c1F [Example 232] | 1.8
CC[C@H](N)c1ccc(Cl)c(Oc2ccccc2)c1Cl [Example 261, (S)-1-(2,4-Dichloro-3-phenoxy-phenyl)-propylamine.hydrochloride] | 1.2
CC[C@@H](N)c1ccc(Cl)c(Oc2ccccc2)c1Cl [Example 262] | 5.9
CC[C@@H](N)c1ccc(Cl)c(Oc2ccc3c(c2)C(C)(C)CN3)c1F [Example 270] | 1.6
C[C@H](CC(=O)NCCN)N[C@H](CC1CCOCC1)c1ccc(Cl)c(Oc2ccccc2)c1F [Example 278] | 3.9
CS(=O)(=O)Nc1cccc(Oc2c(F)ccc(CN[C@H]3CC[C@@H](N)CC3)c2F)c1 [Example 285] | 2.4
CS(=O)(=O)Nc1cccc(Oc2c(F)ccc(CNc3ccnc(N)c3)c2F)c1 [Example 286] | 3
CC[C@@H](N[C@H](C)CC(N)=O)c1ccc(Cl)c(Oc2ccc(-c3cnco3)c(C)c2)c1F [Example 318] | 6.4
CC[C@@H](N[C@@H](C)CC(=O)NCCNC1CC1)c1ccc(Cl)c(Oc2ccccc2)c1F [Example 321] | 1.6
CC[C@@H](N[C@H](C)CC(N)=O)c1ccc(Cl)c(Oc2ccc3c(c2)C(C)(C)CN3)c1F [Example 323] | 3.1
C[C@@H](CC(N)=O)NCc1ccc(F)c(Oc2ccccc2)c1F [Example 326] | 3.9
C[C@@H](CC(N)=O)NCc1ccc(Cl)c(Oc2ccccc2)c1F [Example 328] | 1.4

Other lines, results leading:

IC50 [µM] | Structure (SMILES)
1.1 | CC[C@H](Nc1ncc(CN)cn1)c1ccc(Cl)c(Oc2ccccc2)c1F [Example 330]
1 | C[C@@H](CC(N)=O)N[C@H](C)c1ccc(Cl)c(Oc2ccccc2)c1F [Example 336]
7.6 | COCC[C@@H](N)c1ccc(Cl)c(Oc2ccccc2)c1F [Example 337, (R)-1-(4-Chloro-2-fluoro-3-phenoxy-phenyl)-3-methoxy-propylamine hydrochloride]
2 | N[C@@H](CCO)c1ccc(Cl)c(Oc2ccccc2)c1F [Example 338, 3-Amino-3-(4-chloro-2-fluoro-3-phenoxy-phenyl)-propan-1-ol.hydrochloride]
0.08 | C[C@H](CC(=O)NCCN)N[C@H](C)c1ccc(Cl)c(Oc2ccccc2)c1F [Example 340]
2.7 | C[C@H](N)c1ccc(Cl)c(Oc2ccccc2)c1F [Example 342]
6.3 | N[C@H](CCO)c1ccc(Cl)c(Oc2ccccc2)c1F [Example 343]
1.5 | N[C@H](c1ccc(Cl)c(Oc2ccccc2)c1F)C1CCOCC1 [Example 344]
1.8 | Cc1cc(Oc2c(Cl)ccc([C@@H](N)C3CCOCC3)c2F)ccc1[N+](=O)[O-] [Example 345]
5 | CCC(CC)[C@@H](N)c1ccc(Cl)c(Oc2ccccc2)c1F [Example 346]
2.7 | CCC(CC)[C@H](N)c1ccc(Cl)c(Oc2ccccc2)c1F [Example 347]
10 | C[C@H](CC(N)=O)N[C@H](c1ccc(Cl)c(Oc2ccccc2)c1F)C1CCOCC1 [Example 348]
2.6 | C[C@@H](CC(N)=O)N[C@@H](CCO)c1ccc(Cl)c(Oc2ccccc2)c1F [Example 350]
6.4 | C[C@H](CC(=O)NCCN)N[C@@H](CC1CCOCC1)c1ccc(Cl)c(Oc2ccccc2)c1F [Example 351]
0.32 | C[C@@H](CC(=O)NCCN)N[C@@H](CC1CCOCC1)c1ccc(Cl)c(Oc2ccccc2)c1F [Example 352]
6.4 | N[C@@H](c1ccc(Cl)c(Oc2ccccc2)c1F)C1CCOCC1 [Example 356]
5.7 | N[C@H](CCF)c1ccc(Cl)c(Oc2ccccc2)c1F [Example 357, (R)-1-(4-Chloro-2-fluoro-3-phenoxy-phenyl)-3-fluoro-propylamine.hydrochloride]
0.91 | C[C@@H](CC(N)=O)N[C@H](CCO)c1ccc(Cl)c(Oc2ccccc2)c1F [Example 358]

Same assay, conditions: read-out: Activity % inhibition @ 0.01 μM; 0.01 μM compound

Structure (SMILES) | inhibition at 0.01 µM [%]
C[C@@H](CC(=O)NCCN)N[C@H](C)c1ccc(Cl)c(Oc2ccccc2)c1F [Example 339] | 65
